Earlier results in US7208523B2, “Alanine- and glycine-containing therapeutic agent for hepatitis” (Ajinomoto Co., Inc., priority 2000, dated 2007).

Details: oral administration of glycine or alanine alone; galactosamine intraabdominal

SMILES | inhibition of hepatopathy caused by galactosamine
C[C@H](N)C(=O)O [alanine] | inhibits
NCC(=O)O [glycine] | inhibits
